The values below come from ChEMBL document CHEMBL1126516, “Synthesis, biological activity and electrostatic properties of 3-[2-(dimethylamino)ethyl]-5-[(3-amino-1,2,4-thiadiazol-5-yl)methyl]-1H-indole, a novel 5-HT1D receptor agonist” (Bioorg Med Chem Lett, 1993).

Structures are written as SMILES.

The species named for the assay is Oryctolagus cuniculus. Description: Compound was tested for the contraction of New Zealand white rabbit saphenous vein. Format: functional.

Take `CNS(=O)(=O)Cc1ccc2[nH]cc(CCN(C)C)c2c1`: a half-maximal response (EC50) required 631 nM. Regarding `CN(C)CCc1c[nH]c2ccc(Cc3nc(N)ns3)cc12`, a half-maximal effect (EC50) was put at 10 nM. Take `CN(C)CCc1c[nH]c2ccc(Cc3nc(N)no3)cc12`: the midpoint of the response, the EC50, lay at 501 nM.

Regarding `NCCc1c[nH]c2ccc(O)cc12` [SEROTONIN], the EC50 – broadly, the midpoint of the concentration-response curve – was 158 nM.
